How the values were obtained:
Format in all cases: cell-based
[1] = target: T1, EGFR exon 20 FQEA Ins A763_V764 (Ba/F3 cells) (Homo sapiens, UniProt P00533, INS763FQEA); assay: Inhibitor activity on EGFR-dependent cell growth (CellTiter-Glo, 72 h), Ba/F3 EGFR exon 20 FQEA Ins; conditions: read-out: BaF3 FQEA IC50
T1 construct: expressed in transfected cells; host or cells: Ba/F3 (murine pro-B cells), retroviral transduction, puromycin selection, IL3-independent pool
Summary of the method: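 Compounds, serially diluted 3-fold over 10 points in DMSO and added at 120 nL per well, act on Ba/F3 EGFR-mutant cells for 72 h. Seeding is 800 (exon 19del, FQEA), 600 (L858R/C797S) or 400 (L858R) cells/well. CTG luminescence is fitted with a four-parameter logistic curve to give IC50.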

[2] = target: T2, EGFR exon 20 NPG Ins D770_N771 (Ba/F3 cells) (Homo sapiens, UniProt P00533, INS770NPG); assay: Inhibitor activity on EGFR phosphorylation (pEGFR AlphaLISA, 2 h), Ba/F3 EGFR exon 20 NPG Ins
T2 construct: expressed in transfected cells; host or cells: Ba/F3 (murine pro-B cells), retroviral transduction, puromycin selection, IL3-independent pool
Source text: Example B. Inhibitor Activity on EGFR phosphorylation (pEGFR)
EGFR mutant Ba/F3 cells were generated by transduction with retrovirus containing vectors expressing EGFR L858R, EGFR exon 19del, EGFR L858R/C797S, EGFR exon 20 NPG Ins D770_N771, EGFR exon 20 ASV Ins V769_D770, or EGFR exon 20 SVD Ins D770_N771 genes along with a puromycin selection marker. Transduced cells are selected with puromycin for 7 days and are then be transferred into culture media without Interleukin 3 (IL3). Surviving cells are confirmed to express EGFR by Western blot and maintained as a pool. CUTO14 cells were obtained from Dr. Robert C. Doebele at the University of Colorado. The IC50 date are included in Table 6 and Table 7.
1.1 Cells are harvested from flask into cell culture medium and the cell number counted.
1.2 Cells are diluted with culture medium to the desired density and 40 μL of cell suspension is added into each well of 384-well cell culture plate and the seeding density is 50K cells/well (Ba/F3) or 12.5K cells/well (CUTO14).
2 Compound Preparation and Treatment
2.1 Test compounds are dissolved to 10 mM in a DMSO stock solution. 45 μL of stock solution is transferred to a 384 polypropylene plate (pp-plate). Perform 3-fold, 10-point dilution via transferring 15 μL compound into 30 μL DMSO using a TECAN (EVO200) liquid handler.
2.2 Spin plates at room temperature at 1,000 RPM for 1 minute.
2.3 Transfer 5 nL of diluted compound from compound source plate into the cell plate.
2.4 After compound treatment for 2 hours, perform pEGFR detection by AlphaLISA for compound treatment plates as described in “Detection” section.
3 Detection by pEGFR AlphaLISA (Perkin-Elmer)
3.1 Plates are removed from incubators and equilibrated at room temperature for 10 minutes, and media was removed
3.2 10 μL of lysis buffer is added and plates shaken at 600 rpm for 1 hr.
3.3 Prepare acceptor mix just before use and dispense 5 μL of acceptor mix to all the wells. Shake 350 rpm for Ihr in the dark
3.4 Prepare donor mix under low light conditions prior to use. Dispense 5 μL of donor mix to all the wells. Mix well on the shaker, seal and wrap in aluminum foil and incubate 1.5 hrs at room temperature in the dark
3.5 Transfer 18.5 μL mixture to OptiPlate 384, and read using an Envision. The IC50 date were included in Table 6 and Table 7.

[3] = target: T3, EGFR exon 20 ASV Ins V769_D770 (Ba/F3 cells) (Homo sapiens, UniProt P00533, INS769ASV); assay: Inhibitor activity on EGFR-dependent cell growth (CellTiter-Glo, 72 h), Ba/F3 EGFR exon 20 ASV Ins; conditions: read-out: BaF3 ASV IC50
T3 construct: expressed in transfected cells; host or cells: Ba/F3 (murine pro-B cells), retroviral transduction, puromycin selection, IL3-independent pool
Summary of the method: (§1)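 IC50s derive from a sigmoidal dose–response fit of CellTiter-Glo signal. The signal was normalised between […]-treated cells and cell-free medium. Ba/F3 mutant-EGFR cells, seeded at 400–800/well depending on the line, had 72 h of exposure to a 10-point, 3-fold compound series.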

[4] = target: T2, EGFR exon 20 NPG Ins D770_N771 (Ba/F3 cells); assay: Inhibitor activity on EGFR-dependent cell growth (CellTiter-Glo, 72 h), Ba/F3 EGFR exon 20 NPG Ins; conditions: read-out: BaF3 NPG IC50
Summary of the method: as §1

[5] = target: T4, EGFR exon 20 SVD Ins D770_N771 (Ba/F3 cells) (Homo sapiens, UniProt P00533, INS770SVD); assay: Inhibitor activity on EGFR-dependent cell growth (CellTiter-Glo, 72 h), Ba/F3 EGFR exon 20 SVD Ins; conditions: read-out: BaF3 SVD IC50
T4 construct: expressed in transfected cells; host or cells: Ba/F3 (murine pro-B cells), retroviral transduction, puromycin selection, IL3-independent pool
Summary of the method: as §1

EGFR WT (Ba/F3 cells) = target: T5, EGFR WT (Ba/F3 cells) (Homo sapiens, UniProt P00533); assay: Inhibitor activity on EGFR-dependent cell growth (CellTiter-Glo, 72 h), Ba/F3 EGFR WT; conditions: read-out: BaF3 WT IC50
T5 construct: expressed in transfected cells; host or cells: Ba/F3 (murine pro-B cells), retroviral transduction, puromycin selection, maintained with EGF
Summary of the method: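 This growth assay used Ba/F3 cells that depend on wild-type EGFR and are kept in EGF without IL3. Compounds were made up as 10 mM DMSO stocks and diluted 3-fold over 10 points. 120 nL went onto 600 cells/well. After 72 hours, 40 μL CellTiter-Glo was added and luminescence read on EnVision after 30 min.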

T3 sequence (P00533 with tags, fused parts or gaps INS769ASV): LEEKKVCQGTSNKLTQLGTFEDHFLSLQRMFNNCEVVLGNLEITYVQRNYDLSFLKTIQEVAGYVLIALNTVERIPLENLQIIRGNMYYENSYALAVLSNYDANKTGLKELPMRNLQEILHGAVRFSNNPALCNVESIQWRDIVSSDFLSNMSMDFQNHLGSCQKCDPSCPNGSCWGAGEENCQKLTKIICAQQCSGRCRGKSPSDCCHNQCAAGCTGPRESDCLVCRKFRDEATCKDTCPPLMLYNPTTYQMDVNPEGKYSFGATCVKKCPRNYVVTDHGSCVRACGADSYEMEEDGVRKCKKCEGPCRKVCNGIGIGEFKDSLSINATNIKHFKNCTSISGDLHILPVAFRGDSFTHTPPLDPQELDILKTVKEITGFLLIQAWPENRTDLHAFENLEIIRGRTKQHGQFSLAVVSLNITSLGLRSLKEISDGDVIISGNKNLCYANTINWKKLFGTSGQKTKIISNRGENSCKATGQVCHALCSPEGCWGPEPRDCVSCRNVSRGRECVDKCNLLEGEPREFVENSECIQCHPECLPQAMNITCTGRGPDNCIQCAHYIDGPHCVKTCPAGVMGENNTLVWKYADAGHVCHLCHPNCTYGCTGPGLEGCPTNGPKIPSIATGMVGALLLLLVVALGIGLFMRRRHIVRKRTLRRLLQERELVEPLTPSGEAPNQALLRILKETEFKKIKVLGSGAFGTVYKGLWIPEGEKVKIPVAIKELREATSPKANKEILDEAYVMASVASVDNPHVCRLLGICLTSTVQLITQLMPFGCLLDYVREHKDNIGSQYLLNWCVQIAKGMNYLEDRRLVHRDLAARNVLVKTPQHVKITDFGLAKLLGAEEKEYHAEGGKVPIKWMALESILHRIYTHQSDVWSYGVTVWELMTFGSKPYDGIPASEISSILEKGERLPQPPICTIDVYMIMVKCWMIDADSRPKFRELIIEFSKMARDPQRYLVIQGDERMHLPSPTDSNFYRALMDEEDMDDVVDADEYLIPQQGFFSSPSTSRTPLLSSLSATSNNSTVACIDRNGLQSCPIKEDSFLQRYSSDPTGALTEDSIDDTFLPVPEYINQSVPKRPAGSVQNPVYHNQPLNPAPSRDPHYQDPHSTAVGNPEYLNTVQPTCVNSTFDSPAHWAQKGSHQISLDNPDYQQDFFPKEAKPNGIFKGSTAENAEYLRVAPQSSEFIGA
T5 sequence (P00533 25-1210): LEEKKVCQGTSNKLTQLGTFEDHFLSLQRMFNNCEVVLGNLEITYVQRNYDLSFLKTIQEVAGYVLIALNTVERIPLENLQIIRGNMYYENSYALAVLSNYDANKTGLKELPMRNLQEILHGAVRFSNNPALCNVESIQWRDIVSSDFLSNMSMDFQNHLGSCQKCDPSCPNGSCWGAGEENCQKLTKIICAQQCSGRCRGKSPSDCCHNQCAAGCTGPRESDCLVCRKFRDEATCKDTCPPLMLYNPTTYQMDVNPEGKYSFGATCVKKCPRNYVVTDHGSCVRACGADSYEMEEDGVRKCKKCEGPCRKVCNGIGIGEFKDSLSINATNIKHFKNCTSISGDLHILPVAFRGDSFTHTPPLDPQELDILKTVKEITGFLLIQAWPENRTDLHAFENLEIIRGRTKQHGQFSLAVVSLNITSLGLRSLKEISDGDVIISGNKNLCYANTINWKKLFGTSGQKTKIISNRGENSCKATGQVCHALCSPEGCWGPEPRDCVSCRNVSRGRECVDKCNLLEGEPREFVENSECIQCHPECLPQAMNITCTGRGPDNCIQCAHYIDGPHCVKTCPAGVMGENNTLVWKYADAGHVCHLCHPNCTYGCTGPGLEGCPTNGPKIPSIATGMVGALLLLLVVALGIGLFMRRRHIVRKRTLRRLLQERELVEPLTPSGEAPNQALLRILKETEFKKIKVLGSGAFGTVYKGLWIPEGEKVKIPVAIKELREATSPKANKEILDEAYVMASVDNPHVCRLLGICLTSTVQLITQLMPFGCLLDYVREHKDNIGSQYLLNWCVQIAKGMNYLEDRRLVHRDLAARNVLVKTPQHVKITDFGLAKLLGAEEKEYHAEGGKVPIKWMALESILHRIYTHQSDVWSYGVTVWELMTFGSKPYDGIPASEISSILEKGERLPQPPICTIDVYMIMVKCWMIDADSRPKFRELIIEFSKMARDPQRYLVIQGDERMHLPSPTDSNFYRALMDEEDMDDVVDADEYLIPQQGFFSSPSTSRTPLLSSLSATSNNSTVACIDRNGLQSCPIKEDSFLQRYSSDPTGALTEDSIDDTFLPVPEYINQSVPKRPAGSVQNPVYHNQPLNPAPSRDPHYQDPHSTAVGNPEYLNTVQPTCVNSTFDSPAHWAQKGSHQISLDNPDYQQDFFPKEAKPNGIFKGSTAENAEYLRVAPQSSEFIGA
T2 sequence (P00533 with tags, fused parts or gaps INS770NPG): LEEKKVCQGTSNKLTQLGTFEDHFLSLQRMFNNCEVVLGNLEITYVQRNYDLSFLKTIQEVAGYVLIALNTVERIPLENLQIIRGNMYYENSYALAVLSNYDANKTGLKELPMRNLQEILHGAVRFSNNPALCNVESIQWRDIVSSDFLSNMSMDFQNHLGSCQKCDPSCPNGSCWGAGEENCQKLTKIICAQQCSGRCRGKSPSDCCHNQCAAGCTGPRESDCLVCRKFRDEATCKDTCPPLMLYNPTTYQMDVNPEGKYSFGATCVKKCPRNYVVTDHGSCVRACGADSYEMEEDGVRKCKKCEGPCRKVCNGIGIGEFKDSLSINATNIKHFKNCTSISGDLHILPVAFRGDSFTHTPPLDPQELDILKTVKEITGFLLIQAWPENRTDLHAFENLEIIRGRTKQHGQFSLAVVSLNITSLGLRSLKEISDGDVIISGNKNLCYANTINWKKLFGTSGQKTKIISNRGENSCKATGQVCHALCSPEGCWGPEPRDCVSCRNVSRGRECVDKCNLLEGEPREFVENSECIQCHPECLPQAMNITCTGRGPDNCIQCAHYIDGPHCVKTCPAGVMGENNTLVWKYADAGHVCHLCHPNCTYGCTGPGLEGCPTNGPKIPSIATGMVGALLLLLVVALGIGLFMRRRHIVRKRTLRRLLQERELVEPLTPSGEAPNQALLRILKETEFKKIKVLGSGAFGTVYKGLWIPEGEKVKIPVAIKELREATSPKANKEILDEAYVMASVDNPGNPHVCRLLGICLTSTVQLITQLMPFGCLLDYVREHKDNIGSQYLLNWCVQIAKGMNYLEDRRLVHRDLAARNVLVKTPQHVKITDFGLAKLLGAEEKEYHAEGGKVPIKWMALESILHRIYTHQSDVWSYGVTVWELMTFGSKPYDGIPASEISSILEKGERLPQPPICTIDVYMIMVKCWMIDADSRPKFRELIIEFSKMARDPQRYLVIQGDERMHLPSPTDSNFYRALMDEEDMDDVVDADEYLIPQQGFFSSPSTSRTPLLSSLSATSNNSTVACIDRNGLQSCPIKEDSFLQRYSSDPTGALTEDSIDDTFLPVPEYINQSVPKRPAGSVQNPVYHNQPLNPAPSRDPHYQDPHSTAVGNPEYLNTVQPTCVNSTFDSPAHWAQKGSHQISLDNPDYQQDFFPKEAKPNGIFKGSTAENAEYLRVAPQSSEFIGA
T1 sequence (P00533 with tags, fused parts or gaps INS763FQEA): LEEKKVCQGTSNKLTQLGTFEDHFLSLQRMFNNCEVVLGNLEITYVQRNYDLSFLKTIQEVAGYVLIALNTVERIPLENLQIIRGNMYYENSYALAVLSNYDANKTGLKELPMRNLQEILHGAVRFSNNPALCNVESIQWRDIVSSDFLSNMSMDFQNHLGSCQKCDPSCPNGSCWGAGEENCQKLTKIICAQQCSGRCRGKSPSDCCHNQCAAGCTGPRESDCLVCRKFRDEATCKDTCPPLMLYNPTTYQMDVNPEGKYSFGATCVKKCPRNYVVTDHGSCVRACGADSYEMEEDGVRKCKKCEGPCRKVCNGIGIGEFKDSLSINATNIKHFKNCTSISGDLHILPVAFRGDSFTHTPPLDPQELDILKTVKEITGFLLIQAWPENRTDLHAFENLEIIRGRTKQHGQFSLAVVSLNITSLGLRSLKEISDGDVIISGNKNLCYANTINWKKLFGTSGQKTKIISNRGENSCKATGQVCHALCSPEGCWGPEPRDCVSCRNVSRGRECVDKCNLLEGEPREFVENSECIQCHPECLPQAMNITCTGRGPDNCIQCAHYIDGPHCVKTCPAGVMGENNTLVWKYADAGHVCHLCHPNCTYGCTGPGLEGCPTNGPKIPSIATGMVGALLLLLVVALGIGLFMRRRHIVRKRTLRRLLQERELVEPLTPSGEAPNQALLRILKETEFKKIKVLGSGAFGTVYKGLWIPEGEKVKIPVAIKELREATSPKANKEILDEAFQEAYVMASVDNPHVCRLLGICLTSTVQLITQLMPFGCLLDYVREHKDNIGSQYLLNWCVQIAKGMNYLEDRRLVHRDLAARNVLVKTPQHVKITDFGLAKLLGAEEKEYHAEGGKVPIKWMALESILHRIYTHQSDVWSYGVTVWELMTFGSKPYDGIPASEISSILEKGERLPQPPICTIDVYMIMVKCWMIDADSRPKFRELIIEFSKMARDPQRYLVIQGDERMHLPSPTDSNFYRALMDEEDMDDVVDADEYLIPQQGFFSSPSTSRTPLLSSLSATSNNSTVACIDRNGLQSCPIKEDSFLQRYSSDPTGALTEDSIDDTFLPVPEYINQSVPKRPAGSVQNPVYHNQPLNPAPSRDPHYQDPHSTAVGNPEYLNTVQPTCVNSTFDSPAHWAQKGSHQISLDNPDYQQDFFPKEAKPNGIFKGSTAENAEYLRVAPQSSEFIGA

| IC50 [1] [nM] | IC50 [2] [nM] | IC50 [3] [nM] | IC50 [4] [nM] | IC50 [5] [nM] | IC50 (EGFR WT (Ba/F3 cells)) [nM] | SMILES |
| --- | --- | --- | --- | --- | --- | --- |
| – | > 1000 | – | > 1000 | – | > 1000 | COc1c(F)cccc1Nc1c(-c2ncnc3c2ccn3C)[nH]c2c1C(=O)NCC2 [Compound 150, 3-((3-fluoro-2-methoxyphenyl)amino)-2-(7-methyl-7H-pyrrolo[2,3-d]pyrimidin-4-yl)-1,5,6,7-tetrahydro-4H-pyrrolo[3,2-c]pyridin-4-one] |
| – | > 1000 | – | > 1000 | – | 100 to 1000 | COc1c(F)cccc1Nc1c(-c2snc3ccccc23)[nH]c2c1C(=O)NCC2 [Compound 157, 2-(benzo[c]isothiazol-3-yl)-3-((3-fluoro-2-methoxyphenyl)amino)-1,5,6,7-tetrahydro-4H-pyrrolo[3,2-c]pyridin-4-one] |
| – | 100 to 1000 | – | > 1000 | – | > 1000 | COc1c(F)cccc1Nc1c(-c2ncnc3[nH]ncc23)[nH]c2c1C(=O)NCC2 [Compound 158, 3-((3-fluoro-2-methoxyphenyl)amino)-2-(1H-pyrazolo[3,4-d]pyrimidin-4-yl)-1,5,6,7-tetrahydro-4H-pyrrolo[3,2-c]pyridin-4-one] |
| – | > 1000 | – | > 1000 | – | 100 to 1000 | COc1c(F)cccc1Nc1c(-c2ccnc(-c3ccccc3)c2)[nH]c2c1C(=O)NCC2 [Compound 159, 3-((3-fluoro-2-methoxyphenyl)amino)-2-(2-phenylpyridin-4-yl)-1,5,6,7-tetrahydro-4H-pyrrolo[3,2-c]pyridin-4-one] |
| < 100 | < 100 | < 100 | < 100 | < 100 | < 100 | COc1ccc2nccc(-c3[nH]c4c(c3Nc3cccc(F)c3OC)C(=O)NCC4)c2n1 [Compound 681, 3-[(3-fluoro-2-methoxyphenyl)amino]-2-(6-methoxy-1,5-naphthyridin-4-yl)-1H,5H,6H,7H-pyrrolo[3,2-c]pyridin-4-one] |
| – | < 100 | – | < 100 | – | < 100 | COc1nc2c(-c3[nH]c4c(c3Nc3cccc(F)c3OC)C(=O)NCC4)ccnc2cc1C [Compound 682, 3-[(3-fluoro-2-methoxyphenyl)amino]-2-(6-methoxy-7-methyl-1,5-naphthyridin-4-yl)-1H,5H,6H,7H-pyrrolo[3,2-c]pyridin-4-one] |
| < 100 | < 100 | < 100 | < 100 | < 100 | 100 to 1000 | COc1ccc2nccc(-c3[nH]c4c(c3Nc3cccc(F)c3C)C(=O)NCC4)c2n1 [Compound 684, 3-[(3-fluoro-2-methylphenyl)amino]-2-(6-methoxy-1,5-naphthyridin-4-yl)-1H,5H,6H,7H-pyrrolo[3,2-c]pyridin-4-one] |
| – | > 1000 | – | > 1000 | – | > 1000 | COc1c(F)cccc1Nc1c(-c2ncnc3sccc23)[nH]c2c1C(=O)NCC2 [compound 138] |
| 100 to 1000 | < 100 | – | < 100 | – | > 1000 | COc1c(F)cccc1Nc1c(-c2ccnc(N)n2)[nH]c2c1C(=O)NCC2 [compound 281] |
| < 100 | < 100 | < 100 | < 100 | < 100 | 100 to 1000 | COc1c(F)cccc1Nc1c(-c2ccnc3cccnc23)[nH]c2c1C(=O)NCC2 [compound 442] |

The next lines start with the molecule.

| SMILES | IC50 [1] [nM] | IC50 [2] [nM] | IC50 [3] [nM] | IC50 [4] [nM] | IC50 [5] [nM] | IC50 (EGFR WT (Ba/F3 cells)) [nM] |
| --- | --- | --- | --- | --- | --- | --- |
| COc1ccc2nccc(-c3[nH]c4c(c3Nc3cccc(Cl)c3OC)C(=O)NCC4)c2n1 [Compound 149, 3-((3-chloro-2-methoxyphenyl)amino)-2-(6-methoxy-1,5-naphthyridin-4-yl)-1,5,6,7-tetrahydro-4H-pyrrolo[3,2-c]pyridin-4-one] | < 100 | < 100 | < 100 | < 100 | < 100 | – |
| COc1c(Cl)cccc1Nc1c(-c2ccnc(N)n2)[nH]c2c1C(=O)NC[C@@H]2C[C@@H]1COCCO1 [Compound 532, (7S)-2-(2-aminopyrimidin-4-yl)-3-[(3-chloro-2-methoxyphenyl)amino]-7-[(2R)-1,4-dioxan-2-ylmethyl]-1H,5H,6H,7H-pyrrolo[3,2-c]pyridin-4-one] | – | < 100 | < 100 | < 100 | < 100 | > 1000 |
| C=CC(=O)N1CCC2(CC1)CNC(=O)c1c2[nH]c(-c2ccncc2F)c1Nc1cccc(F)c1CC [Compound 557, 3′-[(2-ethyl-3-fluorophenyl)amino]-2′-(3-fluoropyridin-4-yl)-1-(prop-2-enoyl)-5′,6′-dihydro-1′H-spiro[piperidine-4,7′-pyrrolo[3,2-c]pyridin]-4′-one] | – | < 100 | < 100 | < 100 | < 100 | < 100 |
| C=CC(=O)N1CCN(c2ncc3nccc(-c4[nH]c5c(c4Nc4cccc(F)c4OC)C(=O)NCC5)c3n2)CC1 [Compound 576, 3-[(3-fluoro-2-methoxyphenyl)amino]-2-{2-[4-(prop-2-enoyl)piperazin-1-yl]pyrido[3,2-d]pyrimidin-8-yl}-1H,5H,6H,7H-pyrrolo[3,2-c]pyridin-4-one] | – | < 100 | < 100 | < 100 | < 100 | < 100 |
| C=CC(=O)N1CCC(Oc2nc3c(-c4[nH]c5c(c4Nc4cccc(Cl)c4OC)C(=O)NCC5)ccnc3cc2OC)CC1 [Compound 731, 3-[(3-chloro-2-methoxyphenyl)amino]-2-(7-methoxy-6-{[1-(prop-2-enoyl)piperidin-4-yl]oxy}-1,5-naphthyridin-4-yl)-1H,5H,6H,7H-pyrrolo[3,2-c]pyridin-4-one] | – | < 100 | < 100 | < 100 | < 100 | < 100 |
| COc1cc2nccc(-c3[nH]c4c(c3Nc3cccc(F)c3C)C(=O)NCC4)c2nc1OC [Compound 808, 2-(6,7-dimethoxy-1,5-naphthyridin-4-yl)-3-[(3-fluoro-2-methylphenyl)amino]-1H,5H,6H,7H-pyrrolo[3,2-c]pyridin-4-one] | < 100 | < 100 | < 100 | – | < 100 | < 100 |
| Nc1nccc(-c2[nH]c3c(c2Nc2cccc(F)c2OC(F)F)C(=O)NCC3)n1 [compound 299] | 100 to 1000 | < 100 | 100 to 1000 | 100 to 1000 | 100 to 1000 | > 1000 |
| COc1c(Cl)cccc1Nc1c(-c2ccnc3cnc(OC4COC4)nc23)[nH]c2c1C(=O)NCC2 [compound 441] | < 100 | < 100 | < 100 | < 100 | < 100 | 100 to 1000 |
| COc1c(Cl)cccc1Nc1c(-c2ccnc3cnc(OCCN(C)C)nc23)[nH]c2c1C(=O)NCC2 [compound 502, 3-[(3-chloro-2-methoxyphenyl)amino]-2-{2-[2-(dimethylamino)ethoxy]pyrido[3,2-d]pyrimidin-8-yl}-1H,5H,6H,7H-pyrrolo[3,2-c]pyridin-4-one] | 100 to 1000 | < 100 | 100 to 1000 | 100 to 1000 | 100 to 1000 | > 1000 |
